Test results reported in the supplement of paper PMC10307832.

Assays:
Test in all cases: relative viability (nuclei count vs DMSO), 5 days (fraction); higher = more cells survive
[1] = compound: O=C(O)C(Cc1ccccc1[N+](=O)[O-])=NNc1nc(-c2ccc(Cl)c(Cl)c2)cs1 (mixture of isomers) [4EGI-1] + COc1cccc2cc(-c3nc([C@H]4CC[C@H](C(=O)O)CC4)n4ncnc(N)c34)[nH]c12 [OSI-027] (partner 0.5 µM)
How it was run: (§1)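 Medians of duplicate plates are given as relative viability. That measure is the nuclei count in treated wells divided by the count in vehicle wells. Counts were taken on 4× images of lung cancer cell lines in 1536-well plates, 5 days after pin-tool dosing the day after seeding with one drug alone or a fixed anchor-drug dose plus five library-drug doses (not always all listed) in √10 steps.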

[2] = compound: CN1CCN(CC1)C2=CC(=C(C=C2)NC3=NC=C4C(=N3)N(C5=CC=CC=C5C(=O)N4C)C)OC [XMD8-85] + CCNC(=O)c1noc(-c2cc(C(C)C)c(O)cc2O)c1-c1ccc(CN2CCOCC2)cc1 [Luminespib] (partner 0.01 µM)
How it was run: as §1

[3] = compound: CN1CCN(CC1)C2=CC(=C(C=C2)NC3=NC=C4C(=N3)N(C5=CC=CC=C5C(=O)N4C)C)OC [XMD8-85] + CS(=O)(=O)N1CCN(Cc2cc3nc(-c4cccc5[nH]ncc45)nc(N4CCOCC4)c3s2)CC1 [Pictilisib] (partner 1 µM)
How it was run: as §1

[4] = compound: O=C(O)C(Cc1ccccc1[N+](=O)[O-])=NNc1nc(-c2ccc(Cl)c(Cl)c2)cs1 (mixture of isomers) [4EGI-1] + NC(=O)Nc1cc(-c2cccc(F)c2)sc1C(=O)N[C@H]1CCCNC1 [AZD7762] (partner 0.2 µM)
How it was run: as §1

Cell Line	relative viability ([1]; first compound 0.5 µM)	relative viability ([1]; first compound 1.581 µM)	relative viability ([1]; first compound 5 µM)	relative viability ([1]; first compound 15.81 µM)	relative viability ([1]; first compound 50 µM)	relative viability ([2]; first compound 0.08 µM)	relative viability ([2]; first compound 0.253 µM)	relative viability ([2]; first compound 0.8 µM)	relative viability ([2]; first compound 2.53 µM)	relative viability ([2]; first compound 8 µM)	relative viability ([3]; first compound 0.08 µM)	relative viability ([3]; first compound 0.253 µM)	relative viability ([3]; first compound 0.8 µM)	relative viability ([3]; first compound 2.53 µM)	relative viability ([3]; first compound 8 µM)	relative viability ([4]; first compound 0.5 µM)	relative viability ([4]; first compound 5 µM)	relative viability ([4]; first compound 15.81 µM)	relative viability ([4]; first compound 50 µM)	relative viability ([4]; first compound 1.581 µM)
NCI-H520	0.262	0.325	0.314	0.345	0.179	0.235	0.257	0.192	0.202	0.201	0.222	0.271	0.295	0.248	0.231	–	–	–	–	–
NCI-H358	0.778	0.624	1.08	0.391	0.106	0.303	0.172	0.376	0.339	0.239	0.353	0.366	0.359	0.362	0.304	0.632	0.582	0.275	0.218	–
NCI-H1650	0.705	–	0.681	0.263	0.173	0.203	0.216	0.199	0.173	0.173	0.508	0.501	0.64	0.539	0.226	–	–	–	–	–
RERF-LC-KJ	0.665	–	0.529	0.413	0.296	1.32	1.14	1.3	1.1	0.779	0.504	0.444	0.524	0.603	0.412	0.984	1.11	0.669	0.604	0.605
LOU-NH91	0.737	–	0.752	0.432	0.675	0.413	0.31	0.326	0.523	0.309	0.52	0.566	0.526	0.516	0.471	0.811	0.781	0.72	0.439	–
Calu-6	–	–	–	–	–	–	–	–	–	–	1.02	0.97	1.05	0.979	0.572	–	–	–	–	–
HCC-78	0.356	–	0.38	0.34	0.362	–	–	–	–	–	0.267	0.22	0.228	0.206	0.192	0.617	0.651	0.451	0.512	–
NCI-H1299	–	–	–	–	–	–	–	–	–	–	0.651	0.908	0.874	0.643	0.367	–	–	–	–	–
A549	–	–	–	–	–	–	–	–	–	–	0.517	0.516	0.591	–	0.483	–	–	–	–	–
HCC-366	0.922	0.742	1.13	0.669	0.277	–	–	–	–	–	0.137	0.239	0.146	0.168	0.304	0.33	0.293	0.174	0.0904	0.23
NCI-H2342	0.596	0.644	0.62	0.625	0.517	0.649	0.719	0.74	0.809	0.887	–	–	–	–	–	0.441	0.501	0.559	0.308	0.477
NCI-H1563	0.788	0.752	0.85	0.736	0.665	0.608	0.488	0.505	0.536	0.567	0.703	0.652	0.646	0.663	0.62	–	–	–	–	–
IA-LM	–	–	–	–	–	–	–	–	–	–	0.342	0.187	0.334	0.193	0.143	–	–	–	–	–
UMC-11	0.465	0.526	0.507	0.484	0.284	0.972	1.01	1.08	0.941	0.671	0.696	0.757	0.922	0.796	0.513	–	–	–	–	–
NCI-H1623	0.457	0.418	0.475	0.324	0.382	0.489	0.418	0.58	0.42	0.489	–	–	–	–	–	–	–	–	–	–
NCI-H2228	0.674	0.54	0.594	0.607	0.13	0.154	0.209	0.114	0.188	0.185	0.469	0.353	0.202	0.363	0.247	–	–	–	–	–
NCI-H2009	0.765	0.651	0.768	0.657	0.161	1.01	1.01	1.05	0.898	0.564	0.753	0.722	0.892	0.653	0.364	–	–	–	–	–
SK-LU-1	0.381	0.36	0.356	0.34	0.174	0.193	0.207	0.207	0.191	0.165	0.397	–	0.569	0.6	0.522	–	–	–	–	–
SW 1573	0.884	0.431	0.703	0.284	0.11	0.276	0.189	0.183	0.172	0.175	0.574	0.523	0.591	0.487	0.357	–	–	–	–	–
NCI-H661	0.713	0.583	0.649	0.383	0.245	1.06	0.952	1.01	1.04	0.806	0.406	0.419	0.412	0.366	0.357	–	–	–	–	–
SK-MES-1	0.704	0.523	0.611	0.548	0.199	0.823	0.768	0.779	0.655	0.409	0.349	0.371	0.342	0.383	0.375	–	–	–	–	–
NCI-H2023	0.712	–	0.359	0.162	0.0791	0.406	0.751	–	0.649	0.407	0.199	0.274	0.259	0.265	0.178	–	–	–	–	–
NCI-H522	0.69	0.645	0.693	0.689	0.63	1.15	1.31	0.92	1.06	0.97	–	–	–	–	–	0.947	0.985	0.874	0.783	0.71
